Data published in patent US20160038392A1, “COMPOSITIONS COMPRISING PAULOWNIN AND/OR PAULOWNIA EXTRACTS AND USES THEREOF” (Johnson & Johnson Consumer Inc., priority 2010, published 2016).
≈ marks a conversion by molar mass, not a printed value.

Legend:
[1] = tested on: MatTek's MelanoDerm skin epidermal equivalent tissues (MEL-300-B; NHEK and NHM); assay: Skin Epidermal Equivalents Model as a Skin Lightening Test (ΔL); format: cell-based, human; conditions: topical daily 8 days, measured day 9
Excerpt: Skin epidermal equivalent tissues are available commercially from MatTek's MelanoDerm™ System and were used for the following tests. MatTek's MelanoDerm™ System consists of normal, human-derived epidermal keratinocytes (NHEK) and melanocytes (NHM) which have been cultured to form a multilayered, highly differentiated model of the human epidermis. Specifically, MEL-300-B tissues, each 9 mm in diameter were used in the following tests.
The test materials prepared in an appropriate vehicle and tested concentrations were applied topically to the skin model daily and the experiment lasted for 8 days. Measurement was taken on day 9.
The macroscopic and microscopic visual tissue darkening end points were measured by taking pictures with a digital camera. The Degree of Lightness for each tissue (L-Value) was measured using a spectrophotometer (Konica Minolta CM-2600d). The ΔL (degree of lightness as compared to control) for each test sample is calculated as per following formula:
ΔL=L-value of treated sample−L-value of control sample.

[2] = tested on: skin epidermal tissues (MelanoDerm); assay: Cell Viability Test (MTT) on skin epidermal tissues; format: cell-based, human; conditions: at tested concentrations; ≧30% reduction of cell viability = significant
Procedure: Cell Viability of the tissue during experiment was evaluated using the MTT assay described as follows. The MTT Tissue Viability Assay is a colorimetric assay system that measures the reduction of a yellow Methylthiazolyldiphenyl-tetrazolium bromide (MTT) into an insoluble purple product by the mitochondria of viable cells. The skin epidermal tissues used previously to determine degree of lightness for each test material and of untreated tissues were used to determine percent viable cells remaining at the end of the experiment. The skin epidermal tissues after degree of lightness test were incubated with MTT reagent for 3 h. After incubation extraction buffer is added to lyse the cells and allowed to continue overnight. Samples are read using a plate reader at a wavelength of 570 nm and compared against untreated control and expressed in % Cell Viability as of control. A reduction of ≧30% cell viability as of control consider as a significant indication of cell cytotoxicity caused by the test materials. The amount of purple color produced is directly proportional to the number of viable cells.
Cytotoxicity potential was determined by MTT assay for all extracts and calculated as % reduction of cell viability as compared to control, wherein >30% reduction of cell viability constitute significant cytotoxicity issues.

[3] = tested on: NF-κB promoter activity in H9c2 cells; assay: NF-κB Inhibition Assay (NF-κB promoter luciferase, TNFα stimulated); format: cell-based; conditions: Rattus norvegicus
Procedure: The NF-κB promoter assay is conducted as follows: rat cardiac myoblasts H9c2 cells were purchased from ATCC (Manassas, Va.). Cultures were maintained in Dulbecco's modified Eagle's medium (DMEM, Invitrogen Life Technologies, Carlsbad, Calif.) supplemented with 10% fetal bovine serum, 100 units/ml penicillin, and 50 μg/ml streptomycin (Invitrogen life technologies, Carlsbad, Calif.). Typically, 1×10^4 cells grown in 96-well plates were transiently transfected with 0.45 μg total DNA per well using Lipofectamine 2000 (Invitrogen life technologies, Carlsbad, Calif.). In all transfections, a construct with the thymidine kinase promoter and the Renilla luciferase reporter gene (pRL-TK, Promega, Madison, Wis.) was included as an internal control in addition to the luciferase promoter. One day after transfection, cells were treated with the extracts at indicated concentrations and stimulated with 100 ng/mL of Tumor Necrosis Factor-a (TNFα, Sigma-Aldrich, St Louis, Mo.) for approximately 24 hours before they were lysed for luciferase assays, using Dual-Luciferase Reporter System from Promega (Madison, Wis.), following manufacturer's protocol. Briefly, the firefly luciferase activity was measured first (representing NF-κB promoter activity), followed by the renilla luciferase (internal control), using luminometer LMAX, from Molecular Devices (Sunnyvale, Calif.). […]

Compound: OC12COC(c3ccc4c(c3)OCO4)C1COC2c1ccc2c(c1)OCO2 (centres unmarked) [Paulownin]
- Degree of Lightness (ΔL) ([1]; Conc. 0.5%): 0.69
- Degree of Lightness (ΔL) ([1]; Conc. 1%): 1.52
- Degree of Lightness (ΔL) ([1]; Conc. 2%): 2.79
- Cytotoxicity potential by MTT assay [2]: did not show any significant cytotoxicity
- IC50 [3]: 148 µg/mL (≈ 400 µM)
